US10242153B2, “Method for determining the risk profile of neoplastic tissue” (NOVAZOI THERANOSTICS, priority 2014, dated 2019)

Assays:
[1] = molecular target: KIFC1 (Homo sapiens, UniProt Q9BW19); details: ATP-competitive and MT-noncompetitive; cited from earlier work
[2] = test system: BT-549 breast cancer cells; details: BT-549 cells with amplified centrosomes; cited from earlier work
[3] = test system: N1E-115 cells; assay: Interphase declustering index (DI) in N1E-115 cells; format: cell-based, murine; details: 6-h treatment, 25 interphase cells, drugs at their respective IC50 concentrations
Procedure: To evaluate their effect on interphase clustering, N1E-115 cells were treated with these drugs at their respective IC50 concentrations for 0, 3, 6 and 9 h and co-immunostained for γ-tubulin and α-tubulin to evaluate centrosomal spread and microtubule nucleation status, respectively.
Cell cycle phases were further evaluated via lamin A/C immunostaining to distinguish interphase declustering events from prophase centrosomal spread. To quantitate the spread of the interphase centrosomal cluster, a 3D reconstruction of z-stack images of 25 randomly-selected interphase cells from the 6-h treatment group of each drug were generated. By defining an ROI (region of interest) around the interphase centrosomal cluster, the volume of the cluster spread was calculated using Volocity software. Likewise, defining an ROI using the cell periphery provided the cell volume.

[4] = test system: N1E-115 cells; assay: Golgi (GM130) and γ-tubulin co-immunostaining of drug-treated N1E-115 cells; format: cell-based, murine; details: data not shown
Excerpt: The Golgi, which is primarily responsible for posttranslational modification and protein sorting, also functions as a microtubule-organizing center (MTOC). It has been hypothesized that supernumerary centrosomes may better organize the Golgi to enhance directional cell migration. To investigate what happens to the Golgi upon declustering drug-induced dispersal of the interphase centrosomal cluster, drug-treated N1E-115 cells were co-immunostained with GM130 (a cis-Golgi matrix protein crucial for maintaining its structure) and γ-tubulin.

[5] = test system: adult human dermal fibroblasts (HDFs); assay: Peak subG1 fraction after declustering drugs, non-malignant HDFs; format: cell-based; details: for Peak subG1 percents over 48 h: HDF
Procedure: (§1) To evaluate the impact of putative declustering drugs on cell cycle progression and hypodiploidy (<2N DNA content, which may indicate apoptotic cells), MDA-MB-231 (231), PC3, and HeLa cells were treated with different concentrations of declustering drugs, stained with propidium iodide, labeled with anti-MPM2 antibody, and then assessed by flow cytometry at multiple time points over 48 hr. […] The duration, highest degree, and rapidity of onset of MA varied between drugs, drug concentrations, and cell lines (data not shown). In general, the maximum MA achieved was less pronounced in Nos- and PJ-treated cells. Drug-induced onset of MA was corroborated by substantial increases in cyclin B1 levels in all cell lines. For most cases, prolonged MA (˜24 hr in duration) was followed by a substantial increase in the subG1 population fraction. […] Instances where the subGl fraction was elevated without cleaved caspase-3 may either represent caspase-independent cell death or the presence of hypodiploid cells whose fate is unclear. In general, no consistent associations between the extent, duration, or timing of MA within drugs or across cell lines was found.
(§2) To determine whether the CA-inducing activity of declustering drugs is restricted to cancer cells, two non-malignant cell lines, mammary fibrocystic (MCF10A) cells and adult human dermal fibroblasts (HDFs) were treated with these drugs. […] In comparison, 10 and 25 µM RBN increased peak CA over controls in interphase cells (p<0.001 and p=0.001, respectively), with the lower concentration dramatically augmenting peak CA to 56% of cells versus 15% for the higher dose (FIG. 13, panel B).
In HDFs, all the drugs tested increased peak subG1 over controls in a significant fashion (p<0.01 for all) (Table 2). […] Thus, it appears that there may be clinically relevant therapeutic windows for these drugs depending on the type of cancer and the drug dosage.

[6] = test system: N1E-115 cells; assay: Drug sensitivity (IC50) of N1E-115 cells; format: cell-based, murine; details: Mus musculus; N1E-115 cells (data not shown)
[7] = test system: HeLa cells; assay: Peak subG1 fraction by flow cytometry after declustering drugs, HeLa cells; format: cell-based
Procedure: as §1

[8] = test system: MCF10A cells; assay: Centrosome amplification (CA) by microscopy, MCF10A cells; format: cell-based; details: 25 and 50 μM
Procedure: (§3) Consequently, CA was assessed in cultures treated with different concentrations of declustering drugs for 6, 12, 18, or 24 h and untreated controls via microscopy. Centrosomes were identified by γ-tubulin and centrin-2 colocalization at discrete foci.
as §2

[9] = test system: N1E-115 cells; assay: Ki67 and cleaved caspase-3 immunostaining of serum-starved N1E-115 cells; format: cell-based, murine; details: RedBr-Nos 5 μM, Griseofulvin 10 μM, PJ-34 10 μM
[10] = test system: PC3 cells; assay: Peak subG1 fraction by flow cytometry after declustering drugs, PC3 cells; format: cell-based
Procedure: as §1

[11] = test system: ZR-75-30 cells with amplified centrosomes (ZR-A); assay: Sub-G1 population in ZR-75-30 cells with amplified centrosomes (ZR-A) versus parent cells; format: cell-based; details: 25 μM, 48 h
Procedure: Panel A depicts representative DNA histograms comparing cell-cycle kinetics of ZR-75-30 cells and ZR-A cells treated with bromonoscapine (BN, 25 μM), griseofulvin (GF, 25 μM) or PJ34 (25 μM), respectively for 48 h. […] Panel B depicts a quantitative comparison of sub-G1 population in ZR-75-30 and ZR-A cells upon treatment with the three drugs with the same concentration (25 μM) for the same duration (48 h).
(§4) Accordingly, these cells can be pharmacologically manipulated with aphidicolin to generate extra centrosomes. […] Following aphidicolin wash-out, cells were stained using anti-centrin-2 antibodies to verify extra centrosomes by immunofluorescence confocal microscopy. About ˜60% ZR-75-30 cells generated extra centrosomes (6-8 per cell) and were evaluated for their sensitivity to the three drugs, griseofulvin, bromonoscapine, and PJ34, and compared with parent ZR-75-30 cells with normal centrosomes.

[12] = test system: adult human dermal fibroblasts (HDFs); assay: Centrosome amplification (CA) by microscopy, HDFs; format: cell-based; details: interphase HDFs only, 25 and 50 μM
Procedure: as §3, §2

[13] = test system: N1E-115 cells; assay: Vinculin localization in serum-starved N1E-115 cells; format: cell-based, murine; details: serum-starved (SS) cells
Excerpt: Vinculin stabilizes cell-substrate contacts in neuronal cells undergoing neuritogenesis, while activation by actin-binding proteins mobilizes vinculin to focal adhesions. To determine the localization of vinculin in the neurite extensions and the effect of declustering agents on its localization, N1E-115 cells were immunostained cells for vinculin and stained F-actin using rhodamine-phalloidin.

[14] = test system: mammary fibrocystic (MCF10A) cells; assay: Peak subG1 fraction after declustering drugs, non-malignant MCF10A cells; format: cell-based; details: for Peak subG1 percents over 48 h: MCF10A
Procedure: as §1, §2
Importantly, a therapeutic window exists for several of these agents at the concentrations and in the cell lines tested compared to cancer cells.

[15] = test system: MDA-MB-231 (231) cells; assay: Peak subG1 fraction by flow cytometry (propidium iodide) after declustering drugs, 231 cells; format: cell-based, human
Procedure: as §1

[16] = test system: N1E-115 cells; assay: Neuritogenesis (neurite extension) in serum-starved N1E-115 cells; format: cell-based, murine; details: Mus musculus, N1E-115, 48 h, RedBr-Nos 5 μM, Griseofulvin 10 μM
Procedure: N1E-115 cells grown in serum-starved (SS) medium were evaluated to determine the extent of neurite formation after 48 h of treatment with RedBr-Nos (5 μM), Griseofulvin (10 μM), PJ-34 (10 μM), Paclitaxel (0.05 μM) treatment or untreated control cells (i.e., serum-starved medium (SS) alone). Panels Ai and Aii depict quantitative bar graphs representing the average length of neurites and percentage of population of cells showing neurite length >10 μm, respectively. A hundred cells were counted in each case. […] Panel B depicts an immunoblot showing CLASP1 expression levels in control (C) and CLASP1 siRNA-transfected N1E-115 cells.
Neuritogenesis is a process in nerve cells involving the extension of polarized, elongated neurites. N1E-115 cells usually extend only one major neurite per cell, which can vary in length from 5 to 500 μm. The growth cones of the neurites serve as primary focal points of motility. The effect of declustering agents on cell motility was evaluated by assessing the length and frequency of neurites formed in a serum-free medium on a laminin-coated surface.

[17] = test system: ZR-75-30 cells; assay: Induction of extra centrosomes and markers in ZR-75-30 cells by aphidicolin; format: cell-based
Procedure: Next, centrosome amplification was evaluated to determine the extent to which it directly and independently impacts the migration potential of a mildly aggressive cell line, ZR-75-30. […] In particular, it was of interest to evaluate whether generation of extra centrosomes (by genetic and pharmacological means) impacts migration and invasion kinetics by experimentally inducing centrosome amplification in these cells by aphidicolin treatment (5 μg/ml for 24 h).
Upon treatment with aphidicolin, centrosome amplification was confirmed by immunofluorescence staining for γ-tubulin (green) (data not shown) and changes in γ-tubulin and centrin levels detectable by Western blot analysis.
as §4

[18] = test system: ZR-75-30 cells; assay: Boyden chamber invasion assay, ZR-75-30 cells; format: cell-based; details: aphidicolin-treated cells
Procedure: Trajectories of 10 cells each were captured over 18 h with 108 images per movie (6 frames/h). Data were analyzed using Volocity3.0 software (Improvision, Coventry, UK), whereby average net displacement, displacement rate and velocity measurements were generated for the identified cell tracks with respect to cell centroids. Quantitation of net displacement (Panel A), displacement rate (Panel B) and track velocity (Panel C) for cells with 1 and >2 centrosomes are shown as bar graphs. […] Panel E depicts a bar graph showing quantitation of migration rate of treated and untreated ZR-75-30 cells in a wound healing assay. Panel F depicts a bar graph showing the number of migrated cells in a Boyden chamber assay performed with aphidicolin-treated (APD) and untreated (C) ZR-75-30 cells.
(§5) To assess the migratory capacity of aphidicolin treated cells (˜60% cells harboring extra centrosomes) as compared to control cells, a a classical wound healing assay was performed.

[19] = test system: ZR-75-30 cells; assay: Wound healing assay, ZR-75-30 cells; format: cell-based; details: aphidicolin-treated cells; control 40 h
Procedure: as §5

[20] = test system: MDA-MB-231 breast cancer cells; assay: Spindle multipolarity and cell death, MDA-MB-231 cells; format: cell-based, human; details: 18 h, 10 μM
Procedure: To investigate a possible role for centrosome declustering drugs (such as brominated noscapines) to induce high-grade spindle multipolarity leading to cell death during mitosis, MDA-MB-231 breast cancer cells were treated with brominated noscapine. “Scattering” of amplified centrosomes in MDA-MB-231 breast cancer cells upon treatment with brominated noscapine was observed (data not shown). […] Based upon this metaphasic occurrence of cell death, this caspase-mediated cellular demise reflects a “metaphase catastrophe”.

[21] = test system: MCF-10A near normal breast epithelial cells; assay: Spindle multipolarity and cell death, MCF-10A cells; format: cell-based; details: same concentration (10 μM)

KIFC1, sequence (Q9BW19 whole entry): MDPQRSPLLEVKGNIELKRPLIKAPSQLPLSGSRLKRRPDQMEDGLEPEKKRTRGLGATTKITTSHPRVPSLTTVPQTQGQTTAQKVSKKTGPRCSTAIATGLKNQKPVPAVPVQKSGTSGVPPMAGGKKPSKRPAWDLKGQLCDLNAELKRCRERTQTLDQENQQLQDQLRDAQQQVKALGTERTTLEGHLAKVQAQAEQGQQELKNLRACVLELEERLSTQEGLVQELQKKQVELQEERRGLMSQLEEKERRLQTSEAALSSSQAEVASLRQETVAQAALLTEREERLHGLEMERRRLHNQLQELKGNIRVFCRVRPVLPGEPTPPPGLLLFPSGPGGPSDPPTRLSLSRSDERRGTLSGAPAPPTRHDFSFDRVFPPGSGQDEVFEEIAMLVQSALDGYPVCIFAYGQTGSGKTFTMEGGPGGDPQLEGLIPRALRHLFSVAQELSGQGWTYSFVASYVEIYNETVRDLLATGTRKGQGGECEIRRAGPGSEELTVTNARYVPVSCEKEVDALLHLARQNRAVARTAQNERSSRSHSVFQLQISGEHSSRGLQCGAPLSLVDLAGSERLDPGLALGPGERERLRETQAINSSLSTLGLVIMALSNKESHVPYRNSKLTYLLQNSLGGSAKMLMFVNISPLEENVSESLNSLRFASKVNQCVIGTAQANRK
KIFC1, sequence (P68363 whole entry partner): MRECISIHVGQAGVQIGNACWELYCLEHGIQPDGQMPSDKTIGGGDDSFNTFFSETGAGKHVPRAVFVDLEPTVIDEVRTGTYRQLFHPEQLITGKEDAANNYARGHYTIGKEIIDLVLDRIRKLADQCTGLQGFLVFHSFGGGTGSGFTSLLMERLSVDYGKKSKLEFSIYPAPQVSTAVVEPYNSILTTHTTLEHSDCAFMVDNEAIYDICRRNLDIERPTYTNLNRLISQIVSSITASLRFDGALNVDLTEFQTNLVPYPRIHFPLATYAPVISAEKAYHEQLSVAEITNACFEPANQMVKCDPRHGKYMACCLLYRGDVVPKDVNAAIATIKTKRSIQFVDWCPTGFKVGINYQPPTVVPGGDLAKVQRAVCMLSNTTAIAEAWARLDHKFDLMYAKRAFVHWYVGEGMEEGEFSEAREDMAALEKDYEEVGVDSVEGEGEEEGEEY
KIFC1, sequence (Q9BVA1 whole entry partner): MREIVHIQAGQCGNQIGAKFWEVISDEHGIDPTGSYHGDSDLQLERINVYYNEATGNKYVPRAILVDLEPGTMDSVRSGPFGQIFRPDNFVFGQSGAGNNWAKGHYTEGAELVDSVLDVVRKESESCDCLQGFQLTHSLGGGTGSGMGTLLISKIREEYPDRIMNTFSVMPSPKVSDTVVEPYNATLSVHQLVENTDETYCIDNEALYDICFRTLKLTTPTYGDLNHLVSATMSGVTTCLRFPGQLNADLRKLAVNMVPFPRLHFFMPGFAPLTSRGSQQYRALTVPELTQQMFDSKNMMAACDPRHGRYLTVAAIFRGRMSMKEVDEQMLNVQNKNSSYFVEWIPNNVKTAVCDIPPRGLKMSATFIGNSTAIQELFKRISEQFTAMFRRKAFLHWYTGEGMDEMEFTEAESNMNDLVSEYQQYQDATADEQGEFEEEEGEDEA

CCCc1cc(C(=O)N[C@H](Cc2ccc(-c3cccc(OC(F)(F)F)c3)nc2)C(=O)N[C@@H]2CCNC2)sc1C [AZ82]
Ki [1]: 0.043 µM
centrosome declustering [2]: causes centrosome declustering

COC1=CC(=O)C[C@@H](C)[C@]12Oc1c(Cl)c(OC)cc(OC)c1C2=O [GF, griseofulvin]
interphase declustering index (DI): ratio of average cluster volume to average cell volume [3]: 0.28
fragmentation of the interphase Golgi complex [4]: most robust effect
Peak subG1 percents over 48 h ([5]; 25 μM): 32.9%
Peak subG1 percents over 48 h ([5]; 50 μM): 38.3%
death in cancer cell lines vs. HDFs ([5]; both concentrations): more death in 231 and HeLa cells
IC50 [6]: 25 µM
Peak subG1 percents over 48 h ([7]; 25 μM): 59.5%
Peak subG1 percents over 48 h ([7]; 50 μM): 79.0%
maximum (peak) subG1 fraction relative to control ([7]; 50 μM): 4.3 × control
peak interphase CA ([8]; interphase MCF10A cells): 13-16%
CA in mitotic cells versus controls ([8]; mitotic MCF10A cells): no increase was observed
Ki67-positive cells [9]: high proportion of Ki67-positive cells
Peak subG1 percents over 48 h ([10]; 25 μM): 33.7%
Peak subG1 percents over 48 h ([10]; 50 μM): 39.5%
maximum (peak) subG1 fraction relative to control ([10]; 50 μM): 16.3 × control
sub-G1 population versus parent ZR-75-30 cells [11]: much higher sub-G1 population compared to parent ZR-75-30 cells
peak CA [12]: 14-15%
vinculin localization and focal adhesion points [13]: complete internalization of vinculin and complete loss of focal adhesion points
susceptibility / toxicity in MCF10A cells versus cancer cell lines ([14]; 25 μM): All cancer cell lines were found to be more susceptible
susceptibility of MCF10A cells versus cancer cell lines ([14]; 50 μM): MCF10A and PC3 cells were equally susceptible
peak subG1 percent compared to controls ([14]; MCF10A cells): did increase peak SubG1
Peak subG1 percents over 48 h ([14]; 25 μM): 22.7%
Peak subG1 percents over 48 h ([14]; 50 μM): 35.1%
Peak subG1 percents over 48 h ([15]; 25 μM): 62.0%
maximum (peak) subG1 fraction relative to control ([15]; 25 μM): 6.4 × control
Peak subG1 percents over 48 h ([15]; 50 μM): 60.0%
inhibition at 10 µM [16]: 70 to 80%

C[C@@]1(CO)[C@H](O)CC[C@@]2(C)[C@H]1CC[C@H]1C[C@@H]3C[C@@]12CC[C@]3(O)CO [aphidicolin]
cells harboring extra centrosomes ([17]; 5 μg/ml for 24 h): ~60%
extra centrosomes per cell ([17]; 24 h treatment, after wash-out): 6-8 per cell
vimentin levels (immunoblot) ([17]; following aphidicolin treatment): significant increase in vimentin levels
invasion capacity [18]: increase in invasion capacity
time to fill the scratch wound [19]: 18 h

brominated noscapine
spindle phenotype and cell death [20]: highly aberrant multipolar spindles that succumb to cell death
spindle multipolarity and cell death [21]: did not exhibit any multipolarity or cell death
